# Measurements: patent US20160354320A1, “DRUG LOADED POLYMERIC NANOPARTICLES AND METHODS OF MAKING AND USING SAME” (BIND Therapeutics, Inc., priority 2011, published 2016)
# Assay: Water solubility of cabazitaxel
# Format: physicochemical
# Description: Drug solubilizer (Tween 80) may be added after the fine emulsion has been quenched. Tween 80 is able to effectively solubilize CTXL crystals and allow for the isolation of nanoparticles from unencapsulated CTXL by preventing the formation of CTXL crystals, and/or by effectively solubilizing any CTXL crystals that form when the fine emulsion is quenched. A standard set of nanoemulsion conditions are as follows: […]
substance,measurement,value
cabazitaxel [CTXL],water solubility,very low water solubility
